Like-named read-outs stand apart in the source and are kept apart here.
Procedure: The substrate depletion method was used to determine half-life (t1/2) of compounds by measuring the disappearance of the parent compound over time. Incubations were performed on a Tecan EVO 200 robotic system (Morrisville, NC, USA), equipped with a 96-channel head, Inheco heating block, and controlled by EVOware software (Version 3.5). Mixed-gender human liver microsomes were purchased from Xenotech (Kansas City, KS, USA) (Catalog: H0610). Gentest NADPH Regenerating Solution A and B (Catalog: 451220/451200), Axygen reservoirs (Catalog: RES-SW384-LP/RES-SW384-HP) were purchased from Corning Inc. (Corning, NY, USA). Incubation plates (384-well, 250 µL; Catalog# 186002632) and LC/MS analysis plates (384-well, 100 µL; Catalog# 186002631) were purchased from Waters Inc. (Milford, MA, USA). […] An albendazole solution in acetonitrile (ACN/IS) was prepared for use as an internal standard. Each 110 μL reaction mixture included the test compound (1 μM), HLM (0.5 mg/mL), and NADPH regenerating system in phosphate buffer (pH 7.4). The samples were incubated in 384-well plates at 37 °C for 0, 5, 10, 15, 30, and 60 min. At each designated time point, 10 μL of the mixture was transferred to another 384-well plate containing cold ACN/IS. The plates were then centrifuged at 3000 rpm for 20 min at 4 °C, and supernatants were collected into a 384-well injection plate. Sample quantification was performed using Thermo UPLC/HRMS and data were analyzed using TraceFinder software (Version 4.1). The data were then extracted, and half-life analysis was performed using our in-house Validator software (Version 1.0) as described previously.
[1] = mixed-gender HLM 0.5 mg/mL, test compound 1 μM, NADPH regenerating system, pH 7.4, 37 °C, 0-60 min, mean ± S.D. over 6 years, > 40 plates, t1/2 capped at 120 min

Row | Half-Life (t1/2) (pH 7.4) | Half-Life (t1/2) [1] | SMILES
1 | >120 min |  | Cc1cc(=O)n(-c2ccccc2)n1C [Antipyrine, antipyrine]
2 |  | 14.4 ± 4.1 min | O=C1CC2(CCCC2)CC(=O)N1CCCCN1CCN(c2ncccn2)CC1 [Buspirone, buspirone]
3 |  | 55.2 ± 10.1 min | CC(C)NCC(O)COc1cccc2ccccc12 (stereo not drawn) [Propranolol, propranolol]

From paper PMC11510424, “Developing Robust Human Liver Microsomal Stability Prediction Models: Leveraging Inter-Species Correlation with Rat Data” (Pharmaceutics, 2024)
